Laboratory results as given in patent US12503473B2, “Triazolopyrimidine compounds and their use in treating cancer” (Dizal (Jiangsu) Pharmaceutical Co., Ltd., priority 2018, dated 2025).

Tests used:
[1] = target: T1, MCT1 (Homo sapiens, UniProt P53985); test: Assay (c): FLIPR BCECF lactate influx in K562 cells; type: cell-based; conditions: mean of at least three repeats, read-out: MCT1 FLIPR pIC50 (K562) (converted)
T1 construct: a human erythroleukemia line predominantly expressing MCT1, a small amount of MCT2 and no MCT4; host or cells: K562
T1 sequence (P53985 1-500): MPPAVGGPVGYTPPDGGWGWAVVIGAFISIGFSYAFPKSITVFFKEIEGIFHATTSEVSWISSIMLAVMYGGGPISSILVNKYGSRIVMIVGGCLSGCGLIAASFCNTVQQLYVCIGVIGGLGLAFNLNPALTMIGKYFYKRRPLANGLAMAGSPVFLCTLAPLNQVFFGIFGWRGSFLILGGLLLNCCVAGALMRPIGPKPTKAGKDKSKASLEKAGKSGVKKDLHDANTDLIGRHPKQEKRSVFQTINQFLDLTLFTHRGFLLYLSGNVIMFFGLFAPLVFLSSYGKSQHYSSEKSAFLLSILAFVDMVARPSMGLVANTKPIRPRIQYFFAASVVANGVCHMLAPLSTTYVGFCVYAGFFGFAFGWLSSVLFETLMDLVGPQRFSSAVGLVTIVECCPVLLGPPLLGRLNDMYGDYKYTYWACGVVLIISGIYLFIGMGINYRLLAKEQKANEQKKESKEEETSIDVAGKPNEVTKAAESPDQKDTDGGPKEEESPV
Description: (§1) Cells were loaded with the pH sensitive dye BCECFAM(Invitrogen #B11150) before being washed to remove excess dye and seeded into the assay plates—directly onto the test compound—at a density of 15,000 cells/well (NCI—H358) or 30,000 cells/well (K562), in 30 μl HBSS with 1 mM [final] […] Assay plates were lidded and spun in a plate centrifuge at 170 g for 1 minute. Plates were then wrapped in foil and incubated in the dark for 1 hour at room temperature.
(§2) Following incubation with test compound, 10 μl of 25 mM Sodium-L-Lactate (Sigma #L7022) made up in HBSS with 1 mM [final] […] This addition was performed directly on the FLIPR Tetra platform (Molecular Devices) as part of a real-time kinetic read protocol. […] A percentage change from base-line was calculated for each test well and values normalised to control wells—treated with either DMSO (maximum assay signal) or chemistry related to that described in this patent (minimum assay signal)—before fitting concentration response curves to determine an IC50 value.

[2] = target: T2, MCT4 (Homo sapiens, UniProt O15427); test: cell-based
T2 sequence (O15427 1-465): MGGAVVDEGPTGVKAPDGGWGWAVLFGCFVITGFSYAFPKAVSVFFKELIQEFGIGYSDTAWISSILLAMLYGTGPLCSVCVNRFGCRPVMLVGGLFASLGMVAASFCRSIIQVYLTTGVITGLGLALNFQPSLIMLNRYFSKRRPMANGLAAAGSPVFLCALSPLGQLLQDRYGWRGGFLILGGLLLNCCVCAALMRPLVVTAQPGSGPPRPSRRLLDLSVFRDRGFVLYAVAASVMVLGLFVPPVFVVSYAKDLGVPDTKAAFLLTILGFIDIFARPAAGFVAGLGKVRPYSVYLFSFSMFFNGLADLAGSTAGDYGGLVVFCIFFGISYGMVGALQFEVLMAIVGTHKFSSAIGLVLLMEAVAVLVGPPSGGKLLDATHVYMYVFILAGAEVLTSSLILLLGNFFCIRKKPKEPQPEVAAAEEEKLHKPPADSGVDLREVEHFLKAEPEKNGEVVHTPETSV
Description: as §1, §2

[3] = target: T2, MCT4; test: Assay (a): lactate efflux from SK-Br-3 cells (lactate in media, 4 h); type: cell-based; parameters: a natively glycolytic human breast adenocarcinoma line predominantly expressing MCT4; host or cells: SK-Br-3; conditions: mean of at least three repeats (Example 32, marked *, two repeats), read-out: MCT4 lactate efflux pIC50 (SKBR3) (converted)
Description: Assay plates were lidded and incubated for 4 hours at 37° C. and 5% CO2.

| Compound | IC50 [1] [nM] | IC50 [2] [nM] | IC50 [3] [nM] |
| --- | --- | --- | --- |
| Cc1nc2nc(C)c(O[C@@H]3CCN(c4ccc(-c5ccc(CN6CCN7CCC[C@H]7C6)nn5)cc4)C3)c(C)n2n1 [Example 68, 6-(((R)-1-(4-(6-(((S)-hexahydropyrrolo[1,2-a]pyrazin-2(1H)-yl)methyl)pyridazin-3-yl)phenyl)pyrrolidin-3-yl)oxy)-2,5,7-trimethyl-[1,2,4]triazolo[1,5-a]pyrimidine] | > 25100 | 100 | 3.16 |
| CC(=O)N1CCN(Cc2ccc(-c3cnc(N4CC[C@@H](Cc5c(C)nc6nc(C)nn6c5C)C4)cn3)cc2)CC1 [Example 58, (R)-1-(4-(4-(5-(3-((2,5,7-trimethyl-[1,2,4]triazolo[1,5-a]pyrimidin-6-yl)methyl)pyrrolidin-1-yl)pyrazin-2-yl)benzyl)piperazin-1-yl)ethanone] | > 25100 | 12.6 | 0.631 |
| Cc1nc2nc(C)c(O[C@@H]3CCN(c4ccc(-c5ccc(CN6CCN(C)CC6)nn5)cc4)C3)c(C)n2n1 [Example 65, (R)-2,5,7-trimethyl-6-((1-(4-(6-((4-methylpiperazin-1-yl)methyl)pyridazin-3-yl)phenyl)pyrrolidin-3-yl)oxy)-[1,2,4]triazolo[1,5-a]pyrimidine] | > 25100 |  |  |
| Cc1nc2nc(C)c(O[C@@H]3CCN(c4cnc(-c5ccc(CN6CCN(C)CC6)cc5)nc4)C3)c(C)n2n1 [Example 76, (R)-2,5,7-trimethyl-6-((1-(2-(4-((4-methylpiperazin-1-yl)methyl)phenyl)pyrimidin-5-yl)pyrrolidin-3-yl)oxy)-[1,2,4]triazolo[1,5-a]pyrimidine] | > 25100 |  | 2 |
| Cc1nc2nc(C)c(C[C@@H]3CCN(c4cnc(-c5ccc(CN6CCN(C)C[C@H]6C)cc5)cn4)C3)c(C)n2n1 [Example 34, 6-(((R)-1-(5-(4-(((R)-2,4-dimethylpiperazin-1-yl)methyl)phenyl)pyrazin-2-yl)pyrrolidin-3-yl)methyl)-2,5,7-trimethyl-[1,2,4]triazolo[1,5-a]pyrimidine] | > 25100 | 63.1 | 1.58 |
| Cc1nc2nc(C)c(C[C@@H]3CCN(c4cnc(-c5ccc(CN6C[C@@H](C)N(C)C[C@H]6C)cc5)cn4)C3)c(C)n2n1 [Example 35, 2,5,7-trimethyl-6-(((R)-1-(5-(4-(((2R,5R)-2,4,5-trimethylpiperazin-1-yl)methyl)phenyl)pyrazin-2-yl)pyrrolidin-3-yl)methyl)-[1,2,4]triazolo[1,5-a]pyrimidine] | > 25100 | 15.8 | 0.631 |
| Cc1nc2nc(C)c(C[C@@H]3CCN(c4cnc(-c5ccc(CN6CCN(CCO)CC6)cc5)cn4)C3)c(C)n2n1 [Example 41, 2-{4-[4-(5-{(3R)-3-[(2,5,7-trimethyl[1,2,4]triazolo[1,5-a]pyrimidin-6-yl)methyl]pyrrolidin-1-yl}pyrazin-2-yl)benzyl]piperazin-1-yl}ethanol] | > 25100 |  | 0.794 |
| Cc1nc2nc(C)c(C[C@@H]3CCN(c4ccc(-c5ccc(CN6CCOCC6)nn5)cc4)C3)c(C)n2n1 [Example 29, (R)-4-((6-(4-(3-((2,5,7-trimethyl-[1,2,4]triazolo[1,5-a]pyrimidin-6-yl)methyl)pyrrolidin-1-yl)phenyl)pyridazin-3-yl)methyl)morpholine] | > 15800 |  |  |
| Cc1nc2nc(C)c(C[C@@H]3CCN(c4cnc(-c5ccc(CN6CCN(CC(=O)N(C)C)CC6)cc5)cn4)C3)c(C)n2n1 [Example 53, (R)—N,N-dimethyl-2-(4-(4-(5-(3-((2,5,7-trimethyl-[1,2,4]triazolo[1,5-a]pyrimidin-6-yl)methyl)pyrrolidin-1-yl)pyrazin-2-yl)benzyl)piperazin-1-yl)acetamide] |  | 25.1 | 0.631 |
| Cc1nc2nc(C)c(C[C@@H]3CCN(c4cnc(-c5ccc(CN6C[C@@H](C)N(C)C[C@@H]6C)cc5)cn4)C3)c(C)n2n1 [Example 36, 2,5,7-trimethyl-6-(((R)-1-(5-(4-(((2S,5R)-2,4,5-trimethylpiperazin-1-yl)methyl)phenyl)pyrazin-2-yl)pyrrolidin-3-yl)methyl)-[1,2,4]triazolo[1,5-a]pyrimidine] | > 25100 |  | 0.501 |
| CC(=O)N1CCN(Cc2ccc(-c3ccc(N4CC[C@@H](Oc5c(C)nc6nc(C)nn6c5C)C4)cc3)nn2)CC1 [Example 71, (R)-1-(4-((6-(4-(3-((2,5,7-trimethyl-[1,2,4]triazolo[1,5-a]pyrimidin-6-yl)oxy)pyrrolidin-1-yl)phenyl)pyridazin-3-yl)methyl)piperazin-1-yl)ethan-1-one] | > 25100 |  |  |
| Cc1nc2nc(C)c(C[C@@H]3CCN(c4ccc(-c5ccc(CN6CCN(C)CC6)cc5)cn4)C3)c(C)n2n1 [Example 5, (R)-2,5,7-trimethyl-6-((1-(5-(4-((4-methylpiperazin-1-yl)methyl)phenyl)pyridin-2-yl)pyrrolidin-3-yl)methyl)-[1,2,4]triazolo[1,5-a]pyrimidine] |  | 12.6 | 0.501 |
| Cc1nc2nc(C)c(C[C@@H]3CCN(c4cnc(-c5ccc(CN6C[C@@H](C)N[C@@H](C)C6)cc5)cn4)C3)c(C)n2n1 [Example 40, 6-(((R)-1-(5-(4-(((3R,5S)-3,5-dimethylpiperazin-1-yl)methyl)phenyl)pyrazin-2-yl)pyrrolidin-3-yl)methyl)-2,5,7-trimethyl-[1,2,4]triazolo[1,5-a]pyrimidine] |  | 63.1 | 1.26 |
| Cc1nc2nc(C)c(C[C@@H]3CCN(c4cnc(-c5ccc(CN6CCOCC6)cn5)c(C)n4)C3)c(C)n2n1 [Example 47, (R)-4-((6-(3-methyl-5-(3-((2,5,7-trimethyl-[1,2,4]triazolo[1,5-a]pyrimidin-6-yl)methyl)pyrrolidin-1-yl)pyrazin-2-yl)pyridin-3-yl)methyl)morpholine] |  | 10 | 2 |
| Cc1nc2nc(C)c(C[C@@H]3CCN(c4cnc(-c5ccc(CN6CCCC6)nc5)cn4)C3)c(C)n2n1 [Example 82, (R)-2,5,7-trimethyl-6-((1-(5-(6-(pyrrolidin-1-ylmethyl)pyridin-3-yl)pyrazin-2-yl)pyrrolidin-3-yl)methyl)-[1,2,4]triazolo[1,5-a]pyrimidine] |  | 12.6 | 2.51 |
| Cc1nc2nc(C)c(C[C@@H]3CCN(c4cnc(-c5ccc(CN6CCN(C)CC6)cc5)cn4)C3)c(C)n2n1 [Example 59, (R)-2,5,7-trimethyl-6-((1-(5-(4-((4-methylpiperazin-1-yl)methyl)phenyl)pyrazin-2-yl)pyrrolidin-3-yl)methyl)-[1,2,4]triazolo[1,5-a]pyrimidine] | > 25100 |  |  |
| Cc1nc2nc(C)c(C[C@@H]3CCN(c4ncc(-c5ccc(CN6CCOCC6)cc5)cn4)C3)c(C)n2n1 [Example 6, (R)-4-(4-(2-(3-((2,5,7-trimethyl-[1,2,4]triazolo[1,5-a]pyrimidin-6-yl)methyl)pyrrolidin-1-yl)pyrimidin-5-yl)benzyl)morpholine] |  | 7.94 | 0.631 |
| Cc1nc2nc(C)c(C[C@@H]3CCN(c4cnc(-c5ccc(CN6CCOCC6)cc5)nc4)C3)c(C)n2n1 [Example 19, (R)-4-(4-(5-(3-((2,5,7-trimethyl-[1,2,4]triazolo[1,5-a]pyrimidin-6-yl)methyl)pyrrolidin-1-yl)pyrimidin-2-yl)benzyl)morpholine] |  | 7.94 | 0.2 |
